Experimental data as given in patent US20240398773A1, “COMPOSITIONS COMPRISING OTESECONAZOLE” (Mycovia Pharmaceuticals, Inc., priority 2021, published 2024).
Like-named read-outs stand apart in the source and are kept apart here. Marks after values point to notes of the source that are not given here.

Assays:
[1] = Phase 2a acute VVC study, safety; assay type: in vivo, human; conditions: administered for 3 days
Protocol: Oteseconazole has previously been evaluated in a Phase 2a multi-center, randomized, double-blind, active-controlled, parallel-group, dose-ranging study in patients with moderate-to-severe acute VVC. A total of 55 subjects with moderate-to-severe acute VVC (severity score ≥6 and a positive fungal KOH test) participated in the study across 4 dose groups: 1) oteseconazole 300 mg qd for 3 days: 2) 600 mg qd for 3 days: 3) 600 mg bid for 3 days; or 4) a single dose of fluconazole 150 mg followed by matching placebo. […] No safety signals of clinical concern were observed from the safety assessments.

[2] = Study CL-001 single-dose escalation in healthy subjects, plasma PK; assay type: in vivo, human; conditions: for Tmax / Vd/F / half-life / Cmax / AUC(0-inf): both sexes, human, plasma
Protocol: Study Oteseconazole CL-001 (hereafter referenced as “CL-001”) was a single-center, Phase 1, double-blind, randomized, placebo-controlled, dose-escalating study in healthy adult subjects.
Sixty-four subjects (43 males and 21 females) between 18 and 55 years of age were enrolled in 8 dose groups. Within each dose group, 6 subjects received oteseconazole and 2 subjects received placebo. In the first 7 cohorts, escalating single oral doses (5, 10, 20, 40, 80, 160, or 320 mg) were administered in the fasted state using 2.5, 20, or 60 mg capsules of oteseconazole or matching placebo. An eighth cohort received a single 320 mg oral dose of oteseconazole or matching placebo after ingesting a high-fat breakfast. Subjects in Cohorts 1 through 6 were followed for 14 days for safety and PK assessments. Visits on Days 28 and 42 were added for Cohorts 7 and 8. Dose escalation proceeded only after safety and PK of the previous dose were determined.
The PK analysis was based on concentration-time data from 36 subjects who received active oteseconazole at doses between 20 mg and 320 mg. The majority of the oteseconazole plasma concentrations in Cohort 1 (5 mg) and Cohort 2 (10 mg) were below the limit of quantification (<20 ng/mL); therefore, no PK analysis could be conducted on these subjects.

[3] = Study CL-011 plasma concentrations; assay type: in vivo; conditions: human
Protocol: A total of 217 subjects were randomized to receive oteseconazole and 109 subjects were randomized to receive placebo. All subjects were followed for 36 weeks after the end of treatment. Blood samples for determination of oteseconazole plasma concentrations were collected at Baseline, Day 14, Week 12, Week 24, Week 36, and Week 48 (End of Study (EOS]). Following the loading dose regimen of 150 mg oteseconazole QD for 7 days, the mean (SD) oteseconazole plasma concentration at Day 14 was 1676.2 (876.27) μg/L.

acute VVC episodes = assay: Study CL-012 culture-verified acute VVC episodes; assay type: in vivo, human; conditions: 150 mg QD for 7 days, then 150 mg QW for 11 weeks
Protocol: The average percentage of subjects with one or more culture-verified acute VVC episodes in the 150 mg oteseconazole group was 3.9% versus 39.4% in the placebo group.

[4] = Phase 2b study and three Phase 3 studies, plasma concentration at end of dosing; assay type: in vivo; conditions: human, oral, loading dose Days 1 and 2, then 150 mg weekly, read-out: mean plasma concentrations at the end of the dosing period (Week 14)
Protocol: Oteseconazole dosing regimens will also incorporate a 150 mg once weekly maintenance dose phase for 11 weeks. The initial loading dose given on Days 1 and 2 combined with maintenance dosing of 150 mg oteseconazole weekly for a total treatment duration of 12 weeks was efficacious in preventing recurrence of acute VVC episodes for the duration of the study (48-50 weeks). Based on the PK results from a Phase 2b study and three Phase 3 studies, mean plasma concentrations of approximately 2.5 to 3.5 μg/mL are observed at the end of the dosing period (Week 14).

[5] = Cohort 4, single oral 40 mg, fasted, mean
[6] = Cohort 5, single oral 80 mg, fasted, mean
[7] = Cohort 6, single oral 160 mg, fasted, mean
[8] = Cohort 7, single oral 320 mg, Fasted, mean
[9] = Cohort 8, single oral 320 mg, Fed (high-fat breakfast), mean
[10] = po, 40 mg, Cohort 4, single oral 40 mg, fasted, mean
[11] = po, 80 mg, Cohort 5, single oral 80 mg, fasted, mean
[12] = po, 160 mg, Cohort 6, single oral 160 mg, fasted, mean
[13] = po, 320 mg, Cohort 7, single oral 320 mg, Fasted, mean
[14] = po, 320 mg, Cohort 8, single oral 320 mg, Fed (high-fat breakfast), mean

For `O[C@@](Cn1cnnn1)(c1ccc(F)cc1F)C(F)(F)c1ccc(-c2ccc(OCC(F)(F)F)cc2)cn1` [Oteseconazole, oteseconazole], the serious adverse events [1] was “no serious adverse events”, the safety and tolerability ([1]; 300 mg qd to 600 mg bid) was “safe and well tolerated” and the “plasma concentrations with standard high-fat meal versus fasted state” value ([2]; 320 mg, Cohort 8 versus Cohort 7) was “higher plasma concentrations”. For the same molecule, the “plasma concentrations (majority below the limit of quantification)” value ([2]; Cohort 1 (5 mg) and Cohort 2 (10 mg)) was less than 20 ng/mL, the Tlag ([2]; Cohort 3, single oral 20 mg, fasted, mean) was 1.84 h and the CL/F ([2]; Cohort 3, single oral 20 mg, fasted, mean, N = 5) was 1.39 ^a L/h. The CL/F [2, 5] was 1.30 L/h, the Tlag [2, 5] was 1.58 h and the CL/F [2, 6] was 1.08 L/h. It also gave a Tlag [2, 6] of 1.17 h, a CL/F [2, 7] of 1.67 L/h and a Tlag [2, 7] of 0.75 h. It also gave a CL/F [2, 8] of 1.35 L/h, a Tlag [2, 8] of 0.67 h and a CL/F [2, 9] of 0.406 L/h. For the same molecule, the Tlag [2, 9] was 1.25 h, the Tmax ([2]; oral, 4 hours at 80 mg to 10 hours at 40 mg, read-out: Median Tmax, range over doses) was 4 to 10 h and the Vd/F ([2]; oral, all cohorts, read-out: Vz/F, range of cohort averages) was 696 to 1650 L. For the same molecule, the half-life ([2]; po, 20 mg, Cohort 3, single oral 20 mg, fasted, N = 5) was 393 h, the Cmax ([2]; po, 20 mg, Cohort 3, single oral 20 mg, fasted, mean) was 44.7 ng/mL and the AUC(0-inf) ([2]; po, 20 mg, Cohort 3, single oral 20 mg, fasted, mean, N = 5) was 16100 ng·h/mL. It also gave a Vd/F ([2]; po, 20 mg, Cohort 3, single oral 20 mg, fasted, mean, N = 5, read-out: Vz/F) of 696 L, a Tmax ([2]; po, 20 mg, Cohort 3, single oral 20 mg, fasted, median, read-out: Tmax) of 5.03 h and a half-life ([2]; po, 40 mg, Cohort 4, single oral 40 mg, fasted) of 548 h. For the same molecule, the AUC(0-inf) [2, 10] was 35000 ng·h/mL, the Cmax [2, 10] was 79.7 ng/mL and the Vd/F ([2]; po, 40 mg, Cohort 4, single oral 40 mg, fasted, mean, read-out: Vz/F) was 939 L. For the same molecule, the Tmax ([2]; po, 40 mg, Cohort 4, single oral 40 mg, fasted, median, read-out: Tmax) was 10 h, the half-life ([2]; po, 80 mg, Cohort 5, single oral 80 mg, fasted) was 536 h and the AUC(0-inf) [2, 11] was 84600 ng·h/mL. For the same molecule, the Cmax [2, 11] was 165 ng/mL, the Vd/F ([2]; po, 80 mg, Cohort 5, single oral 80 mg, fasted, mean, read-out: Vz/F) was 761 L and the Tmax ([2]; po, 80 mg, Cohort 5, single oral 80 mg, fasted, median, read-out: Tmax) was 4.01 h. The half-life ([2]; po, 160 mg, Cohort 6, single oral 160 mg, fasted) was 618 h, the AUC(0-inf) [2, 12] was 109000 ng·h/mL and the Cmax [2, 12] was 180 ng/mL. The Vd/F ([2]; po, 160 mg, Cohort 6, single oral 160 mg, fasted, mean, read-out: Vz/F) was 1400 L, the Tmax ([2]; po, 160 mg, Cohort 6, single oral 160 mg, fasted, median, read-out: Tmax) was 6 h and the half-life ([2]; po, 320 mg, Cohort 7, single oral 320 mg, Fasted) was 873 h. The AUC(0-inf) [2, 13] was 242000 ng·h/mL, the Cmax [2, 13] was 338 ng/mL and the Vd/F ([2]; po, 320 mg, Cohort 7, single oral 320 mg, Fasted, mean, read-out: Vz/F) was 1650 L. It also gave a Tmax ([2]; po, 320 mg, Cohort 7, single oral 320 mg, Fasted, median, read-out: Tmax) of 5 h, a half-life ([2]; po, 320 mg, Cohort 8, single oral 320 mg, Fed (high-fat breakfast)) of 1470 h and an AUC(0-inf) [2, 14] of 953000 ng·h/mL. For the same molecule, the Cmax [2, 14] was 988 ng/mL, the Vd/F ([2]; po, 320 mg, Cohort 8, single oral 320 mg, Fed (high-fat breakfast), mean, read-out: Vz/F) was 741 L and the Tmax ([2]; po, 320 mg, Cohort 8, single oral 320 mg, Fed (high-fat breakfast), median, read-out: Tmax) was 6 h. It also gave a concentration at 12 week ([3]; 150 mg, Week 12, maximum concentration, read-out: mean (SD) plasma concentration) of 3400 ng/mL, a concentration at 48 week ([3]; 150 mg, Week 48, read-out: mean (SD) plasma concentration) of 1150 ng/mL and a concentration at 14 day ([3]; Day 14, after loading 150 mg QD for 7 days, read-out: mean (SD) plasma concentration) of 1680 ng/mL. For the same molecule, the “average percentage of subjects with one or more culture-verified acute VVC episodes” value (acute VVC episodes) was 3.9% and the concentration at 14 week [4] was 2500 to 3500 ng/mL.
